Entries after “also recorded” stand apart in the source; their conditions may differ. Counter-ions that a name gives are not always drawn.
Experiments:
[1] = Stability test: pH of aqueous solutions over 24 h; type: physicochemical; settings: for pH of freshly prepared solution: 0 h
Procedure: (§1) Stability test. Fresh water solutions of Pilo, PiloHCl, and [Pilo-OEG]Cl (5 mM) were prepared and their pH at 0, 0.75, 4, 8, and 24 h was measured with a pH meter ([…]). The samples at 0 and 24 h were further analyzed with LC-MS/MS using a Surveyor Plus HPLC System and triple stage quadrupole (TSQ) Quantum Ultra Mass Spectrometer (Thermo Fisher Scientific, USA) equipped with an auto-sampler and electrospray ionization (ESI) source. Separation was carried out on an Hypersil Gold column (150 mm×2.1 mm, […], Thermo) maintained at 25° C. The mobile phase consisted of 0.1% (v/v) formic acid water phase (A) and methanol phase (B). The gradient elution program was as follows: 95% of A at 0-5 min, and back to 95% of A at 23.1 min, re-conditioning of the column for 8 min. The flow rate was 0.2 mL/min A capillary temperature of 350° C., spray voltage of 4500 V, sheath gas of 30 arb, and auxiliary gas of 10 arb were maintained as the optimal instrument conditions. Unit resolution was used for Q1 (FWHM 0.7). Nitrogen was used as both sheath gas and auxiliary gas.

[2] = Stability test: LC-MS/MS analysis of aqueous solutions at 0 and 24 h; type: physicochemical; settings: water solution, 5 mM
Procedure: as §1

[3] = system: HCE-2 human corneal epithelial cells; assay: Cytotoxicity assessment, WST-1 assay; type: cell-based; settings: HCE-2 cells, 24 h, 1 mM to 50 mM
Procedure: (§2) Cytotoxicity assessment. HCE-2 human corneal epithelial cells were seeded in a 96-well plate at a density of 1×10^4 cell/well. After attachment, the cells were incubated with various concentrations of Pilo, PiloHCl and [Pilo-OEG]Cl for 24 h and cell viability was determined by using WST-1 assay. The medium for HCE-2 (ATCC CRL-11135, epithelial Adenovirus 12-SV40 hybrid transformed) was Keratinocyte-serum free medium supplemented with 0.05 mg/mL of bovine pituitary extract (BPE), 5 ng/mL of epidermal growth factor (EGF), 500 ng/mL of hydrocortisone and 0.005 mg/mL of insulin. The cytotoxicity of Pilo and [Pilo-OEG]Cl to NIH3T3 fibroblast cells was also tested.

[4] = Ex vivo corneal permeation, Franz diffusion cell; type: in vitro ADME; settings: rabbit cornea; for amount permeated through the cornea within 4 h: 200 μL of 27 mM in donor chamber
Procedure: Ex vivo corneal permeation studies. Corneas were extracted from fresh rabbit eyes and mounted immediately in a Franz diffusion cell system with the epithelial surface facing the donor chamber. In each test, Pilo, PiloHCl, or [Pilo-OEG]Cl (200 μL, 27 mM) was loaded to the donor chamber. The receiver chamber was filled with 5 mL of PBS. At pre-determined time points up to 4 h, an aliquot of 1 mL from the receiver chamber was collected via syringe and analyzed with UV-Vis spectrophotometer (U-3010, Hitachi). Fresh PBS (1 mL) was added to the receiver chamber following each sampling. All the experiments were conducted in triplicate. The permeability coefficient, P, was then determined based on the following equation: [formula] where dQ/dt is the steady-state slope of a cumulative flux curve (in this study, the data in 1 h is selected for dQ/dt calculation), C is drug concentration in the donor chamber, and A is the effective cross-sectional area (0.629 cm^2) available for diffusion.^22

[5] = system: intraocular pressure (IOP); assay: In vivo IOP-lowering efficacy assessment; parameters: species or system normotensive adult Brown Norway female rats; settings: for IOP reduction after second dose: second topical dose applied 4 hours after the first; for average IOP reduction after first dose: topical 2×5 μL, 82 mM pilocarpine equivalent, 45 min post-administration, n=4; for time of highest IOP reduction post-administration: topical instillation
Procedure: In vivo efficacy assessment. Normotensive adult Brown Norway female rats (Charles River Laboratories), 8 months old, were used in this work. The rats were given free access to food and water, 12 hours light and dark cycle in a temperature-controlled room (18-24° C.). The procedures conducted were approval by Virginia Commonwealth University IACUC. Rats were randomly grouped to two groups of four (n=4). The right eye of each rat was instilled with PiloHCl or [Pilo-OEG]Cl PBS solution (2×5 μL, 82 mM pilocarpine equivalent), one dose at 8:00 am and the second dose at 12:00 pm. The IOPs of both eyes were measured at 8:00 am (before dosing), 8:45 am, 12:00 pm (before the second dosing), 12:45 pm, and 16:00 pm using Icare TONOLAB tonometer TV02.

[6] = Cytotoxicity assessment, WST-1 assay; type: cell-based, human; settings: human, HCE-2 human corneal epithelial cells; HCE-2 cells, 24 h incubation, WST-1
Procedure: as §2

[7] = literature value; cited from earlier work

Compound: CC[C@@H]1C(=O)OC[C@@H]1Cc1c[n+](CCOCCOCCO)cn1C.[Cl-] [[Pilo-OEG]Cl]
- pH of freshly prepared solution ([1]; water solution, 5 mM): 7.3
- pH stability of aqueous solution within 24 h ([1]; water solution, 5 mM, 24 h): remain relatively stable
- degradation products formed in solution (LC-MS) [2]: neither isopilocarpine or pilocarpine and isopilocarpine acids formed
- cytotoxicity / cytocompatibility [3]: did not show apparent toxicity; also recorded: cytocompatible
- permeability coefficient, fold higher than Pilo [4]: 1 fold
- permeability coefficient, fold higher than PiloHCl [4]: 8 fold
- amount permeated through the cornea within 4 h ([4]; 4 h): 51.6±8.1%
- amount permeated, fold higher than PiloHCl ([4]; 4 h): 5 fold
- Papp at 1 h, 27 mM ([4]; rabbit, dQ/dt from data in 1 h, read-out: permeability coefficient): 13 ×10⁻⁶ cm/s
- IOP reduction, fold versus PiloHCl ([5]; first dose, statistical significance not established): 2 fold
- IOP reduction after second dose [5]: 2.625 mmHg
- average IOP reduction after first dose [5]: 2.75 mmHg
- time of highest IOP reduction post-administration [5]: 45 min

Compound: CC[C@@H]1C(=O)OC[C@@H]1Cc1cncn1C [PiloHCl, pilocarpine hydrochloride]
- dissociation constant (pKa) ([1]; calculated/estimated from pH at 0 h, 5 mM in water, hydrochloride): 8.34
- pH of freshly prepared solution ([1]; water solution, 5 mM, hydrochloride): 5.3
- pH stability of aqueous solution within 24 h ([1]; water solution, 5 mM, 24 h): remain relatively stable
- degradation products formed in solution (LC-MS) ([2]; hydrochloride): Isopilocarpine also formed
- IC50 at 24 h [6]: 25 mM
- cytotoxicity / cytocompatibility ([3]; hydrochloride): strong dose-dependent cytotoxicity
- amount permeated through the cornea within 4 h ([4]; 4 h, hydrochloride): 8.1±1.8%
- permeability coefficient ([4]; dQ/dt from data in 1 h, hydrochloride): 1.5 ×10⁻⁶ cm/s
- IOP reduction after second dose [5]: ~1 mmHg
- average IOP reduction after first dose [5]: 1.25 mmHg
- time of highest IOP reduction post-administration [5]: 45 min

Compound: CC[C@@H]1C(=O)OC[C@@H]1Cc1cncn1C [Pilo, Pilocarpine]
- pH of freshly prepared solution ([1]; water solution, 5 mM): 9.2
- pH of solution at 8 h ([1]; water solution, 5 mM, 8 h): 8.7
- pH of solution at 24 h ([1]; water solution, 5 mM, 24 h): 8.2
- pKa ([1]; water solution, calculated/estimated from pH at 0 h, 5 mM in water, read-out: dissociation constant (pKa)): 7.28
- degradation products formed in solution (LC-MS) [2]: isopilocarpine formed (eluted at 2.02 min, m/z=209.06) and further hydrolyzed into acids
- cytotoxicity / cytocompatibility [3]: cytocompatible
- amount permeated through the cornea within 4 h ([4]; 4 h): 27.8±14.7%
- permeability coefficient ([4]; dQ/dt from data in 1 h): 6.6 ×10⁻⁶ cm/s
- pKa reported in the Merck Index [7]: 7.15
